Five compounds from PMC12766724, “Synthesis, Anthelmintic Activity, and Mechanism of Action of 5‑Aryl‑1H‑indoles” (Journal of Agricultural and Food Chemistry, 2025) can be followed below.

Broadly, the IC50 is the concentration that inhibits the measured activity by half. High values mean a need for much substance, low ones inhibition by little substance.

Series [1] relates to age unsynchronized Ditylenchus destructor. Description: Motility on WMicrotracker ONE. The format is in vivo. The procedure, abridged:
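Age-unsynchronized populations of Ditylenchus destructor were maintained following a previously described protocol. Their motility was measured on the WMicrotracker ONE platform using previously published methods. The instrument scores the activity of small animals by counting how often infrared light microbeams passing through the wells of a microtiter plate are interrupted. Activity was recorded before treatment and during exposure to compounds.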

The subject of series [2] is C. elegans CB211 lev-1(e211) IV. The series can be described thus: Chitinase assay (reproductive capacity). The format is in vivo. To be noted: Caenorhabditis elegans; levamisole-resistant strain.
For series [3], the system named is C. elegans ZZ15 lev-8(x15) X. Description: Chitinase assay (reproductive capacity). The format is in vivo. As to conditions: Caenorhabditis elegans; levamisole-resistant strain.
In series [4] the test system is C. elegans CB3474 ben-1(e1880) III. The series can be described thus: Chitinase assay (reproductive capacity). Format: in vivo. As to conditions: Caenorhabditis elegans; mebendazole-resistant strain.
The subject of series [5] is C. elegans DA1316 avr-14(ad1305) I; avr-15(vu227) glc-1(pk54) V. The series can be described thus: Chitinase assay (reproductive capacity). Format: in vivo. To be noted: Caenorhabditis elegans; ivermectin-resistant strain.
For series [6], the system named is Skin fibroblasts (BJ). Description: Resazurin assay, 3-day treatment. To be noted: for Average viability (signal intensity relative to control): BJ. The format is cell-based, human.
For series [7], the system named is C. elegans N2 wild-type. The series can be described thus: Chitinase assay (reproductive capacity). Format: in vivo, Caenorhabditis elegans. As to conditions: Caenorhabditis elegans. An outline of the steps: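 Wild-type N2 L1 larvae were exposed to compounds for 4 days, then populations were examined microscopically and Chitinase activity, released at hatching, was measured as a read-out of reproduction. Failure from acute or reproductive toxicity or developmental defects is detected.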

Series [8] has as its system xL3 H. contortus. The series can be described thus: Motility on WMicrotracker ONE. Format: in vivo. To be noted: 48 h; for reduction of movement rates: 50 µM. Here is the method: H. contortus L3 were obtained by culturing feces collected from experimentally infected sheep (located in the facilities of the Instituto de Ganadera de Montaa, Leon, Spain) in aerated and humidified closed containers, which were placed in a climatic chamber at 28 °C for 5 days. Larvae were recovered by immersing the feces in tap water for 5 h to stimulate migration. The suspension was then filtered through a 20 μm sieve. Subsequently, larvae were collected using a Baermann apparatus with a 30 μm mesh overnight at 23 °C. Exsheathment of L3 larvae was performed by incubating them in 0.1% (v/v) sodium hypochlorite for 1 h at room temperature on a rotator, followed by three washes with tap water to remove residual bleach.
The effect of compounds on motility of H. contortus, D. destructor, and H. schachtii was evaluated using the WMicrotracker ONE platform according to previously published protocols. ,
We mostly focused on the three derivatives containing a halogen substitution in the 4-position of the phenyl ring, namely, i-19, i-20, and i-21. An initial experiment was also conducted with a representative compound with an aliphatic chain, namely, i-12, in which we observed only a relatively small effect on the motility of larvae (approximately 30% decrease in motility of nematodes treated with 100 μM of the compound after 48 h in comparison to vehicle-treated worms; Figure S2.7). […] The effect was apparent starting at 3 h and beyond. At 48 h, the latest time point was tested, and the movement rates of nematodes exposed to 50 μM of i-19, i-20, and i-21 were reduced by 76%, 80%, and 82%, respectively.

Where [9] appears, read: 10 µM group, initial (prior to the treatment).
[10] abbreviates: 50 µM group, initial (prior to the treatment).
[11] abbreviates: 100 µM group, initial (prior to the treatment).

Turning to `CCCOc1cccc(-c2ccc3[nH]ccc3c2)c1` [i-12], the average activity counts in series [1] (setting [9]) was determined as 220; in series [1] (10 µM, 48 h) it was 197; in series [1] (10 µM, 72 h), 218; in series [1] (setting [10]) it was 201; in series [1] (50 µM, 48 h) it was 186; in series [1] (50 µM, 72 h) it was 202. For the same compound, the average activity counts in series [1] (setting [11]) is 235; in series [1] (100 µM, 48 h), 207; in series [1] (100 µM, 72 h), 202. The IC50 in series [2] was 8.69 ± 1.26 µM; in series [3], 8.03 ± 1.13 µM; in series [4], 8.32 ± 0.74 µM; in series [5], 7.59 ± 1.99 µM; in series [7], 9.6 ± 0.9 µM. The “Average viability (signal intensity relative to control)” value is on record as 0.96 ± 0.01 in series [6] (10 µM), 1.04 ± 0.05 in series [6] (20 µM) and 0.96 ± 0.03 in series [6] (40 µM). The “decrease in motility in comparison to vehicle-treated worms” value in series [8] (100 µM) is listed as “approximately 30%”.
With `FC(F)(F)Oc1ccc(-c2ccc3[nH]ccc3c2)cc1` [i-21], the average activity counts is 227 in series [1] (setting [9]); 220 in series [1] (10 µM, 48 h); 183 in series [1] (10 µM, 72 h); 223 in series [1] (setting [10]); 172 in series [1] (50 µM, 48 h); 139 in series [1] (50 µM, 72 h). The average activity counts in series [1] (setting [11]) is 221; in series [1] (100 µM, 48 h), 158; in series [1] (100 µM, 72 h) it was 94. The “decrease of mean activity counts” value in series [1] (100 µM, 72 h) is listed as 57%. Besides, the IC50 came to 10.1 ± 0.39 µM in series [2]; 10.6 ± 0.48 µM in series [3]; 9.01 ± 0.78 µM in series [4]; 10.4 ± 0.41 µM in series [5]; 8.58 ± 0.99 µM in series [7]. The “Average viability (signal intensity relative to control)” value in series [6] (10 µM) is reported as 0.94 ± 0.02; in series [6] (20 µM), 0.96 ± 0.04; in series [6] (40 µM), 0.87 ± 0.03. Also, in series [8], the “reduction of movement rates” value worked out at 82%.
In the case of `CCCOc1ccc(-c2ccc3[nH]ccc3c2)cc1` [i-13], the average activity counts is given as 204 in series [1] (setting [9]); 200 in series [1] (10 µM, 48 h); 207 in series [1] (10 µM, 72 h); 221 in series [1] (setting [10]); 211 in series [1] (50 µM, 48 h); 219 in series [1] (50 µM, 72 h). Moreover, the average activity counts in series [1] (setting [11]) is on record as 239; in series [1] (100 µM, 48 h) it was 211; in series [1] (100 µM, 72 h), 228. Further, the IC50 was found to be 8.8 ± 1.21 µM in series [2]; 7.63 ± 0.91 µM in series [3]; 8.28 ± 0.99 µM in series [4]; 8.45 ± 1.36 µM in series [5]; 7.09 ± 0.72 µM in series [7]. Further, the “Average viability (signal intensity relative to control)” value in series [6] (10 µM) came to 0.97 ± 0.01; in series [6] (20 µM) it was 1 ± 0.05; in series [6] (40 µM), 0.98 ± 0.03.
For `Fc1ccc(-c2ccc3[nH]ccc3c2)cc1` [i-20], the average activity counts came out at 215 in series [1] (setting [9]); 200 in series [1] (10 µM, 48 h); 187 in series [1] (10 µM, 72 h); 223 in series [1] (setting [10]); 84 in series [1] (50 µM, 48 h); 64 in series [1] (50 µM, 72 h). For the same compound, the average activity counts in series [1] (setting [11]) was 226; in series [1] (100 µM, 48 h), 2; in series [1] (100 µM, 72 h), 2. Further, the “decrease of mean activity counts” value in series [1] (100 µM, 72 h) came out at 99%. Further, the IC50 came out at 9.02 ± 0.75 µM in series [2]; 11 ± 0.51 µM in series [3]; 9.97 ± 1.06 µM in series [4]; 10.4 ± 1.09 µM in series [5]; 9.05 ± 0.62 µM in series [7]. The “Average viability (signal intensity relative to control)” value is 0.96 ± 0.01 in series [6] (10 µM), 0.98 ± 0.02 in series [6] (20 µM) and 0.96 ± 0.03 in series [6] (40 µM). Also, in series [8], the “reduction of movement rates” value is 80%.
Turning to `Clc1ccc(-c2ccc3[nH]ccc3c2)cc1` [i-19], the average activity counts in series [1] (setting [9]) was found to be 226; in series [1] (10 µM, 48 h), 227; in series [1] (10 µM, 72 h) it was 232; in series [1] (setting [10]) it was 239; in series [1] (50 µM, 48 h) it was 85; in series [1] (50 µM, 72 h), 67. The average activity counts was determined as 233 in series [1] (setting [11]); 113 in series [1] (100 µM, 48 h); 88 in series [1] (100 µM, 72 h). Moreover, the “decrease of mean activity counts” value in series [1] (100 µM, 72 h) is listed as 62%. Besides, the IC50 in series [2] worked out at 6.8 ± 1.95 µM; in series [3] it was 5.92 ± 0.39 µM; in series [4], 6.61 ± 0.85 µM; in series [5], 5.15 ± 1.01 µM; in series [7] it was 6.67 ± 0.6 µM. Moreover, the “Average viability (signal intensity relative to control)” value in series [6] (10 µM) is recorded as 0.98 ± 0.02; in series [6] (20 µM), 1.02 ± 0.06; in series [6] (40 µM) it was 1 ± 0.03. Moreover, the “effect on the viability of fibroblasts” value in series [6] (up to 40 μM) is given as “no effect”. For the same compound, the “reduction of movement rates” value in series [8] was 76%.
